Results published in PubChem BioAssay (NCI).
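Assay format: 96-well plates, 48-hour exposure. TGI: total growth inhibition.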

How the values were obtained:
Test in all cases: NCI-60 cell line screen, 48 h
[1] = test system: TK-10 renal
[2] = test system: SF-268 CNS
[3] = test system: SK-OV-3 ovarian
[4] = test system: HCC-2998 colon
[5] = test system: HOP-62 NSCLC
[6] = test system: UACC-62 melanoma
[7] = test system: COLO 205 colon
[8] = test system: MOLT-4 leukemia
[9] = test system: OVCAR-4 ovarian
[10] = test system: SR leukemia

Measured: TGI

CC(=O)OC/C=C(/C=C/CNC1CCCCC1)OC(C)=O
31.1 µM: [5]
35.5 µM: [2]
30.6 µM: [1]
35.7 µM: [9] | [10]
> 100 µM: [8]
33.8 µM: [3]
28.2 µM: [7]
40.3 µM: [4]
33.2 µM: [6]

O=[N+]([O-])c1ccc(-c2ccc(-c3csc(Nc4ccccn4)n3)o2)cc1
56.1 µM: [1]
50 µM: [9]
62.4 µM: [5]
> 100 µM: all other assays above

COc1ccc2cc(NC(=O)N/N=C\c3ccc(Cl)cc3)ccc2c1
> 100 µM: all assays above

Brc1cc2nn(-c3ccccc3)nc2c2nonc12
> 100 µM: all assays above

Brc1ccc2c(-c3csc(-c4c[nH]c5cc(Br)ccc45)n3)c[nH]c2c1
> 41 µM: [10]
97.4 µM: [3]
> 62.8 µM: [8]
97.7 µM: [9]
> 100 µM: all other assays above

NC(=O)C(=CNC(=S)c1ccncc1)C(N)=O
> 100 µM: all assays above

NC1CNC(=O)c2c(Cl)sc(Cl)c21 (stereo not given)
> 100 µM: all assays above
